Reference: publication PMC7311426, “An amphipathic peptide with antibiotic activity against multidrug-resistant Gram-negative bacteria” (Nature Communications, 2020)
Residues, ends and D or L forms follow the SMILES beside them.

Experiments:
Assay in all cases: microbe, parasite or virus in culture
S. aureus = S. aureus ATCC 25923 MSSA; MHB; mode of 6 replicates
Protocol: (§1) Antimicrobial activity of arenicin-3 and its analogs was tested against a panel of bacterial and yeast strains by in vitro broth microdilution (BMD) assay with minimum inhibitory concentration (MIC) determination. Strains were purchased from American Type Culture Collection (ATCC) or obtained from clinical collaborators (full strain profiles provided in Supplementary Data 3). All peptides were prepared in Ringer’s acetate solution, and subsequently diluted fresh in water for each independent assay.
(§2) Assays were performed in Mueller Hinton broth (MHB; BD, Cat. No. 211443) for bacteria, and yeast extract-peptone dextrose (YPD; Sigma-Aldrich, Y1500) for yeast. The concentrations of the peptides and comparator antibiotics/antifungals in the assay wells ranged from either 128 or 64 μg mL^−1, to 0.06 or 0.03 μg mL^−1 as a 12-point dose response plated as a 2-fold dilution series across the wells of the plate in duplicate for each independent biological replicate, using a final cell density of 5 × 10^5 CFU mL^−1 and 2.5 × 10^3 CFU mL^−1 for bacteria and yeast respectively. Final assay volumes were 100 μL per well with MICs determined visually following 18-20 h incubation at 37 °C for bacteria, 24 h incubation at 35 °C for Candida albicans, and 24 h incubation at 35 °C with resazurin addition (0.006%; Sigma-Aldrich, Cat # R7017) for a further 3 h for Cryptococcus neoformans, without shaking. Additional bacterial and yeast susceptibility assays were performed in Cation-Adjusted Mueller Hinton Broth (CAMHB; BD, Cat No. 212322) and Roswell Park Memorial Institute (RPMI) 1640 culture medium (Life Technologies Australia, Cat No. 21870092), respectively, as recommended by CLSI guidelines (M07 11th ed[36] and M27 4th ed[37]). […] Agarose MICs were determined in MHB with 1% agarose (Bioline molecular grade; Cat no: BIO-41025; high purity, high gel strength). All experiments were performed a minimum of six replicates (n ≥ 6).

A. baumannii = A. baumannii ATCC 19636 type strain; MHB; mode of 6 replicates
Protocol: as §1, §2

E. coli = E. coli ATCC 25922 FDA control strain; MHB; mode of 6 independent biological replicates
Protocol: as §1, §2

P. aeruginosa = P. aeruginosa ATCC 27853 control strain; MHB; mode of 6 replicates
Protocol: as §1, §2

K. pneumoniae = K. pneumoniae ATCC 13883 type strain (polymyxin/colistin heteroresistant); MHB; mode of 6 replicates
Protocol: as §1, §2

[1] = system: A. baumannii clinical isolates
Protocol: The in vitro activity of AA139 and comparator antimicrobials was determined in two panels of clinical isolates of E. coli, K. pneumoniae, P. aeruginosa, and A. baumannii (Supplementary Table 3), and MIC90 presented. The US panel consisted of 331 clinical isolates from 2010 to 2012. It was tested by BMD in accordance with the CLSI guidelines (M07-A9, 2012)[39]. […] AA139 was diluted in 0.01% acetic acid/0.1% bovine serum albumin. Sterile polypropylene culture cluster round-bottom 96-well plates (Costar # 3879) were used for testing. The worldwide panel consisted of 445 clinical isolates from 2011 to 2013, geographically divided into Asia, Europe, North America, and Rest of World (Middle East, Latin America, Africa, and South Pacific) with each region representing ~25% of the isolates. It was tested by broth microdilution in accordance with the CLSI guidelines (M07-A9, 2012)[39]. […] The test media was CAMHB (Becton Dickinson). AA139 and polymyxin B were tested in media supplemented with 0.002% Tween 80 (Calbiochem). MIC90 values were calculated for all or subsets of the isolates. MIC correlation between AA139 and colistin was analyzed with data from the US panel.

CC(C)[C@@H]1NC(=O)[C@H](Cc2ccc(O)cc2)NC(=O)[C@H](Cc2c[nH]c3ccccc23)NC(=O)[C@@H](NC(=O)[C@H](Cc2ccccc2)NC(=O)CN)CSSC[C@@H](C(N)=O)NC(=O)[C@H](CCCNC(=N)N)NC(=O)[C@H](CCCNC(=N)N)NC(=O)[C@H](Cc2ccc(O)cc2)NC(=O)[C@@H]2CSSC[C@H](NC1=O)C(=O)N[C@@H](C)C(=O)N[C@@H](CCCNC(=N)N)C(=O)N[C@@H](CCCNC(=N)N)C(=O)N[C@@H](CC(N)=O)C(=O)NCC(=O)N[C@@H](C)C(=O)N[C@@H](CCCNC(=N)N)C(=O)N[C@@H](C(C)C)C(=O)N2 [AB0017] (HELM PEPTIDE1{G.F.C.W.Y.V.C.A.R.R.N.G.A.R.V.C.Y.R.R.C.[am]}$PEPTIDE1,PEPTIDE1,3:R3-20:R3|PEPTIDE1,PEPTIDE1,7:R3-16:R3$$$V2.0)
0.125 µg/mL: BMD MIC (K. pneumoniae)
1 µg/mL: BMD MIC (A. baumannii)
64 µg/mL: BMD MIC (S. aureus)
0.5 µg/mL: BMD MIC (E. coli)
0.25 µg/mL: BMD MIC (P. aeruginosa)

CN(C)c1cc(NC(=O)CNC(C)(C)C)c(O)c2c1C[C@H]1C[C@H]3[C@H](N(C)C)C(O)=C(C(N)=O)C(=O)[C@@]3(O)C(O)=C1C2=O [Tig]
0.5 µg/mL: MIC ([1]; US isolates 2010-2012, isolate CID 1919942, Rep 2) | MIC ([1]; US isolates 2010-2012, isolate CID 1930670, Rep 1) | MIC ([1]; US isolates 2010-2012, isolate CID 2762740, Rep 1) | MIC ([1]; US isolates 2010-2012, isolate CID 2801949, Rep 1) | MIC ([1]; US isolates 2010-2012, isolate CID 2802027, Rep 2) | MIC ([1]; US isolates 2010-2012, isolate CID 2802028, Rep 1) | MIC ([1]; US isolates 2010-2012, isolate CID 2802028, Rep 2)
8 µg/mL: MIC ([1]; US isolates 2010-2012, isolate CID 2762740, Rep 2)
0.25 µg/mL: MIC ([1]; US isolates 2010-2012, isolate CID 1919942, Rep 1) | MIC ([1]; US isolates 2010-2012, isolate CID 1930676, Rep 1) | MIC ([1]; US isolates 2010-2012, isolate CID 1930676, Rep 2) | MIC ([1]; US isolates 2010-2012, isolate CID 2801947, Rep 1) | MIC ([1]; US isolates 2010-2012, isolate CID 2801949, Rep 2) | MIC ([1]; US isolates 2010-2012, isolate CID 2802187, Rep 1) | MIC ([1]; US isolates 2010-2012, isolate CID 2802187, Rep 2)
1 µg/mL: MIC ([1]; US isolates 2010-2012, isolate CID 1919446, Rep 2) | MIC ([1]; US isolates 2010-2012, isolate CID 1930670, Rep 2) | MIC ([1]; US isolates 2010-2012, isolate CID 2727598, Rep 1) | MIC ([1]; US isolates 2010-2012, isolate CID 2727598, Rep 2) | MIC ([1]; US isolates 2010-2012, isolate CID 2728650, Rep 1) | MIC ([1]; US isolates 2010-2012, isolate CID 2728650, Rep 2) | MIC ([1]; US isolates 2010-2012, isolate CID 2728663, Rep 2) | MIC ([1]; US isolates 2010-2012, isolate CID 2732481, Rep 2) | MIC ([1]; US isolates 2010-2012, isolate CID 2732486, Rep 1) | MIC ([1]; US isolates 2010-2012, isolate CID 2732486, Rep 2) | MIC ([1]; US isolates 2010-2012, isolate CID 2802027, Rep 1) | MIC ([1]; US isolates 2010-2012, isolate CID 2802031, Rep 1) | MIC ([1]; US isolates 2010-2012, isolate CID 2802031, Rep 2) | MIC ([1]; US isolates 2010-2012, isolate CID 2802109, Rep 2)
2 µg/mL: MIC ([1]; US isolates 2010-2012, isolate CID 1919446, Rep 1) | MIC ([1]; US isolates 2010-2012, isolate CID 1919519, Rep 1) | MIC ([1]; US isolates 2010-2012, isolate CID 1919519, Rep 2) | MIC ([1]; US isolates 2010-2012, isolate CID 1919714, Rep 1) | MIC ([1]; US isolates 2010-2012, isolate CID 1919714, Rep 2) | MIC ([1]; US isolates 2010-2012, isolate CID 2727597, Rep 1) | MIC ([1]; US isolates 2010-2012, isolate CID 2727597, Rep 2) | MIC ([1]; US isolates 2010-2012, isolate CID 2728115, Rep 1) | MIC ([1]; US isolates 2010-2012, isolate CID 2728115, Rep 2) | MIC ([1]; US isolates 2010-2012, isolate CID 2728119, Rep 1) | MIC ([1]; US isolates 2010-2012, isolate CID 2728119, Rep 2) | MIC ([1]; US isolates 2010-2012, isolate CID 2728663, Rep 1) | MIC ([1]; US isolates 2010-2012, isolate CID 2732481, Rep 1) | MIC ([1]; US isolates 2010-2012, isolate CID 2802029, Rep 1) | MIC ([1]; US isolates 2010-2012, isolate CID 2802029, Rep 2) | MIC ([1]; US isolates 2010-2012, isolate CID 2802111, Rep 2)
0.12 µg/mL: MIC ([1]; US isolates 2010-2012, isolate CID 2727898, Rep 1) | MIC ([1]; US isolates 2010-2012, isolate CID 2727898, Rep 2) | MIC ([1]; US isolates 2010-2012, isolate CID 2801947, Rep 2)
